# Values joined by “and” are separate entries in the source; they are usually repeats but may differ in a detail not shown here. Equal values may be shown once. “Also recorded” adds a separate entry of the source.
# Assays:
# C57BL/6 mice = assay: Hind limb immobilization model, BML-260 treatment; type: in vivo, mouse
# Method: Western blotting was carried out using the previously published protocol (Lee et al, [2020]). The NIH imaging software Image J 64 was used for densitometry analysis of the gel bands. The primary and secondary antibodies used in this study are shown in the reagent and tools table. Chemiluminescence was used to detect the secondary antibody.
# To immobilize the hind limbs, 14-week-old male C57BL/6 mice were anesthetized with isoflurane and both hind limbs were fixed with plastic EP-tubes (Axygen, MCT-175-C). To prevent the tubes from slipping, the junction between the tubes and the hind limbs were wrapped with insulating tape. BML-260 was treated as follows: (1) vehicle alone (5% DMSO + 5% tween 80) and (2) 5 mg/kg BML-260 (n = 3 per group). The mice were monitored daily and sacrificed after 14 days.
# Mice were anesthetized using ketamine (22 mg/kg; Yuhan, Republic of Korea) and xylazine (10 mg/kg; Bayer, Republic of Korea) in saline by IP injection. The quadriceps, gastrocnemius, soleus and TA muscles were then dissected and weighed. For histological analysis, the muscles were fixed by overnight incubation with 4% paraformaldehyde in PBS pH 7.4 at 4 °C. Paraffin sectioning and H&E staining were provided by the Animal Housing Facility, Gwangju Institute of Science and Technology, Republic of Korea (5 µm muscle sections using a Thermo Scientific HistoStar (Thermofisher). H&E staining was carried out with a kit (Merck, Germany)). For immunohistochemistry, TA muscle sections were permeabilized for 15 min (PBS with 0.5% Triton X-100), blocked for 1 h (5% BSA) and incubated with the primary antibody overnight at 4 °C (a list of primary and secondary antibodies used in this study are provided in Appendix Tables S4 and S5, respectively). After washing with PBS 3 times for 5 min, the sections were incubated with the secondary antibody at RT for 1 h. The nuclei were counterstained with DAPI in ProLong™ Gold Antifade Mountant (Invitrogen, P36935). Digital images were acquired with Leica DM 2500 (Leica Microsystems). Cross sectional area (CSA) and fiber size distribution was measured using the NIH imaging software Image J 64. To CSA and size distribution of different fiber types was calculated in 4 muscle section as follows: type 2 A: 30–40 fibers measured; type 2B: at least 100 fibers measured; type 2X: 30–40 fibers measured.
# [1] = set-up: method as in ref [9] Feng et al, 2019; conditions: pH range 3 to 7.4, HPLC; ref [9] Feng et al, 2019; cited from earlier work
# [2] = tested on: 15-month-old C57BL/6J male mice; assay: Assessment of potential organ toxicity (liver, heart, kidney); type: in vivo, mouse; set-up: Kidney mass / Liver mass / heart mass / Kidney mass, Average / Liver mass, Average / heart mass, Average: unit not given here; conditions: 5 mg/kg IP every 24 h for 6 weeks
# Method: To assess the effect of BML-260 treatment on the liver, heart and kidney, 15-month-old C57BL/6J male mice were treated as follows: 1) Vehicle (DMSO in PBS pH 7.4 with 5% Tween 80) alone, 2) 5 mg/kg BML-260 (n = 4 per group). BML-260 was administered via IP delivery every 24 h for 6 weeks. The mice were then sacrificed and the liver, kidneys and heart were weighed and photographed.
# A) Photographs of the kidneys, liver, and heart after 6 weeks treatment with 5 mg/kg in 15 month-old mice. (n=4) B) Kidney(p=0.4403), liver(0.5545), and heart(0.5349) mass. ns=not statistically significant. n represents biological replicates analyzed by Student’s t test. Error bars represent the standard error of the mean (SEM).
# (1 picture or pasted object on this page, not shown here)
# adipocytes = tested on: adipocytes; set-up: method as in Feng et al, 2019; conditions: ref Feng et al, 2019; cited from earlier work
# [3] = tested on: VH1-related (VHR) phosphatase; set-up: method as in Cutshall et al, 2005; conditions: ref Cutshall et al, 2005; cited from earlier work
# C57BL/6J mice = assay: Dex treatment mouse model of skeletal muscle atrophy, BML-260 treatment; type: in vivo; conditions: TA muscle of C57BL/6 mice treated with Dex, Vehicle average = 1, n = 4
# [4] = 5 mg/kg BML-260, 14 days immobilization
# [5] = TA of immobilized mice (Fig EV4), Sham average = 1
# [6] = TA of immobilized mice (Fig EV4), Sham average = 1, individual animals
compound,measurement,setting,value
O=C(O)c1ccc(N2C(=O)C(=Cc3ccccc3)SC2=S)cc1 (stereo in doubt) [BML-260],"DUSP22 levels in TA and gastrocnemius muscles, western blot",C57BL/6 mice; [4],reduced DUSP22 levels
same,"MYH4 (myosin heavy chain 2B) in TA muscle, western blot",C57BL/6 mice; [4],upregulation
same,"atrogin-1 and MuRF-1 expression in immobilized TA, western blot",C57BL/6 mice; [4],downregulated
same,"phosphorylation level of JNK in TA muscle, western blot",C57BL/6 mice; [4],reduction
same,"DUSP22, western blot quantification, Average",C57BL/6 mice; SHAM average = 1,0.5293
same,"DUSP22, western blot quantification","C57BL/6 mice; SHAM average = 1, individual animals",0.9793 and 0.6244 and 0.3303 and 0.3563 and 0.317 and 0.5687
same,"DUSP22, western blot quantification, Average","C57BL/6 mice; TA muscle of immobilized mice (Fig EV5), Sham average = 1",1.168
same,"DUSP22, western blot quantification","C57BL/6 mice; TA muscle of immobilized mice (Fig EV5), Sham average = 1, individual animals",1.324 and 0.9536 and 0.9932 and 1.399
same,"p-jnk/jnk, western blot quantification, Average","C57BL/6 mice; TA muscle of immobilized mice, Sham average = 1",0.4787
same,"p-jnk/jnk, western blot quantification","C57BL/6 mice; TA muscle of immobilized mice, Sham average = 1, individual animals",0.7134 and 0.5569 and 0.2233 and 0.4213
same,"DUSP22, western blot quantification, Average",C57BL/6 mice; [5],1.587
same,"MYH4, western blot quantification, Average",C57BL/6 mice; [5],0.928
same,"DUSP22, western blot quantification",C57BL/6 mice; [6],1.411 and 2.335 and 2.043 and 0.8602 and 1.621 and 1.251
same,"MYH4, western blot quantification",C57BL/6 mice; [6],1.0151 and 0.5864 and 0.9197 and 0.796 and 1.189 and 1.062
same,stability at pH values within normal physiological conditions,[1],predicted to be stable
same,"kidney, liver and heart appearance and mass",[2],no major difference compared to vehicle-treated mice; also recorded: no gross significant change
same,Kidney mass,[2]; individual animals,4.5487 and 5.186 and 4.22 and 4.517
same,Liver mass,[2]; individual animals,49.3264 and 63.6644 and 45.6088 and 64.8958
same,heart mass,[2]; individual animals,3.6875 and 4.058 and 4.981 and 4.532
same,"Kidney mass, Average",[2]; n = 4,4.6181
same,"Liver mass, Average",[2]; n = 4,55.8738
same,"heart mass, Average",[2]; n = 4,4.315
same,expression of uncoupling protein-1 (UCP-1),adipocytes,upregulates
same,inhibitory effect against VHR phosphatase,[3],no inhibitory effect
"C[C@@H]1C[C@H]2[C@@H]3CCC4=CC(=O)C=C[C@]4(C)[C@@]3(F)[C@@H](O)C[C@]2(C)[C@@]1(O)C(=O)CO [Dex, dexamethasone]","DUSP22 expression, qPCR, Average",C57BL/6J mice,1.655

# Reference: article PMC12162873, “Modulating phosphatase DUSP22 with BML-260 ameliorates skeletal muscle wasting via Akt independent JNK-FOXO3a repression” (EMBO Molecular Medicine, 2025)
